These results are taken from publication PMC8287724, “Reducing Auditory Nerve Excitability by Acute Antagonism of Ca^2+-Permeable AMPA Receptors” (Frontiers in Synaptic Neuroscience, 2021).

Bounds are passed on as bounds.

The target of series [1] is T1, M3 acetylcholine GPCR (Homo sapiens, UniProt P20309).
T1 construct: host or cells: CHO cells
Put plainly: Radioligand binding assay, M3 receptor (transfected CHO cells). To be noted: antagonist 1 μM. The procedure:
(§1) Binding assays were conducted to evaluate the affinity of test compounds IEM-1460 and IEM-1925 (Eurofins Scientific, Inc.) for 15 targets: the human alpha-1 adrenergic (A1) receptor, histaminergic (H)-2 and−3 receptors, and muscarinic acetylcholine receptors-1 to−5 in transfected CHO cells by radioligand binding. The neuronal α4β2 and neuronal α7 cholinergic acetylcholine receptors were tested in transfected SH-SY5Y cells. The histaminergic-1 and−4 receptors were tested in transfected HEK-293 cells. Ion channel testing for AMPA and N-methyl-D-aspartate (NMDA) was performed in cells from the rat cerebral cortex. […] Non-specific binding was determined in the presence of 1 μM of DCPX. […] The filters were dried and then counted for radioactivity in a scintillation counter (Topcount, Packard) using a scintillation cocktail (Microscint 0, Packard). The results are expressed as a percent inhibition of the control radioligand specific binding: 100-[(measured specific binding)/(control specific binding) × 100]. […]
(§2) We tested the metabolic stability of the compounds with in vitro liver microsome stability assays (Table 1, right). […] We evaluated the compounds for potential toxicity with assays that test for inhibition of off-target ion channels and receptors. […]

Series [2] addresses T2, H4 histamine GPCR (Homo sapiens, UniProt Q9H3N8).
T2 construct: host or cells: HEK-293 cells
Kind of series: Radioligand binding assay, H4 receptor (transfected HEK-293 cells). Conditions: antagonist 1 μM. How it is done:
as §1, §2

For series [3], the target named is T3, nAChR alpha7 (Homo sapiens, UniProt P36544).
T3 construct: host or cells: SH-SY5Y cells
Kind of series: Radioligand binding assay, neuronal α7 nicotinic receptor (transfected SH-SY5Y cells). Conditions: antagonist 1 μM. How it is done:
as §1, §2

Series [4] is described as follows: In vitro microsomal stability assay, guinea pig. The format is in vitro ADME. To be noted: pH 7.4; guinea pig liver microsomes, 1 μM compound, 37°C; read-out: Half-life (min) Mean (N = 2). How it is done: The stability of IEM-1460 in the presence of guinea pig liver microsomes (BioIVT, PN: X008070) or IEM-1925 in the presence of human (BioIVT, PN: M00101), mouse, or guinea pig liver microsomes was evaluated (Paraza Pharma, Inc., Montreal, Quebec, Canada). Both IEM-1925 and IEM-1460 were incubated with microsomes at 37°C for a total of 45 min. Working solutions were prepared in 100 mM potassium phosphate buffer and the final reaction was performed at pH 7.4 in 100 mM potassium phosphate buffer containing 0.5 mg/mL liver microsomal protein. Phase I metabolism was assessed by adding NADPH to a final concentration of 1 mM and collecting samples at time points 0, 5, 15, 30, and 45 min. All collected samples were quenched 1:1 with ice-cold stop solution (1 μM labetalol and 1 μM glyburide in acetonitrile) and centrifuged to remove precipitated protein. […] Samples were analyzed by LC-MS/MS using a Thermo Vanquish UPLC and a Thermo Quantis triple quadrupole mass spectrometer. […] Reference compounds were also assessed to ensure accuracy and precision of experimental protocol: imipramine and verapamil for human liver microsomes, diphenhydramine and verapamil for mouse liver microsomes, and warfarin and verapamil for guinea pig liver microsomes. […] Half-life was determined from a plot of the natural logarithm of the peak area ratio (remaining compound peak area/internal standard peak area) against time. […]

Series [5] addresses T4, M2 acetylcholine GPCR (Homo sapiens, UniProt P08172).
T4 construct: host or cells: CHO cells
Kind of series: Radioligand binding assay, M2 receptor (transfected CHO cells). To be noted: antagonist 1 μM. How it is done:
as §1, §2

Series [6] concerns the target T5, nAChR alpha4/beta2 (Homo sapiens, UniProt P17787+P43681).
T5 construct: host or cells: SH-SY5Y cells
Kind of series: Radioligand binding assay, neuronal α4β2 nicotinic receptor (transfected SH-SY5Y cells). To be noted: antagonist 1 μM. The procedure:
as §1, §2

Series [7] is described as follows: Metabolic stability in vitro as summarised in the abstract (species not given). In kind it is in vitro ADME. To be noted: mouse, guinea pig, human, liver microsomes, pH 7.4. How it is done:
The stability of IEM-1460 in the presence of guinea pig liver microsomes (BioIVT, PN: X008070) or IEM-1925 in the presence of human (BioIVT, PN: M00101), mouse, or guinea pig liver microsomes was evaluated (Paraza Pharma, Inc., Montreal, Quebec, Canada). Both IEM-1925 and IEM-1460 were incubated with microsomes at 37°C for a total of 45 min. Working solutions were prepared in 100 mM potassium phosphate buffer and the final reaction was performed at pH 7.4 in 100 mM potassium phosphate buffer containing 0.5 mg/mL liver microsomal protein. Phase I metabolism was assessed by adding NADPH to a final concentration of 1 mM and collecting samples at time points 0, 5, 15, 30, and 45 min. All collected samples were quenched 1:1 with ice-cold stop solution (1 μM labetalol and 1 μM glyburide in acetonitrile) and centrifuged to remove precipitated protein. […] Samples were analyzed by LC-MS/MS using a Thermo Vanquish UPLC and a Thermo Quantis triple quadrupole mass spectrometer. […] Reference compounds were also assessed to ensure accuracy and precision of experimental protocol: imipramine and verapamil for human liver microsomes, diphenhydramine and verapamil for mouse liver microsomes, and warfarin and verapamil for guinea pig liver microsomes. […] Half-life was determined from a plot of the natural logarithm of the peak area ratio (remaining compound peak area/internal standard peak area) against time.
(In general: Microsomes from liver hold many membrane-bound enzymes, among them those of drug oxidation.)

For series [8], the system named is non-pyramidal cells (expressing mainly GluA2-lacking CP-AMPARs). The arrangement: method as in Tikhonov et al., 2000. To be noted: 2000, cited from earlier work; for IC50: rat hippocampus ref Tikhonov et al.; for apparent selectivity for CP- over CI-AMPARs: ref Tikhonov et al.

As a reminder, the half-life is the time needed for the level to fall by half in the phase considered. In general, IC50 refers to the concentration that gives 50% inhibition.

T5 sequence (P43681 29-627 limits assumed): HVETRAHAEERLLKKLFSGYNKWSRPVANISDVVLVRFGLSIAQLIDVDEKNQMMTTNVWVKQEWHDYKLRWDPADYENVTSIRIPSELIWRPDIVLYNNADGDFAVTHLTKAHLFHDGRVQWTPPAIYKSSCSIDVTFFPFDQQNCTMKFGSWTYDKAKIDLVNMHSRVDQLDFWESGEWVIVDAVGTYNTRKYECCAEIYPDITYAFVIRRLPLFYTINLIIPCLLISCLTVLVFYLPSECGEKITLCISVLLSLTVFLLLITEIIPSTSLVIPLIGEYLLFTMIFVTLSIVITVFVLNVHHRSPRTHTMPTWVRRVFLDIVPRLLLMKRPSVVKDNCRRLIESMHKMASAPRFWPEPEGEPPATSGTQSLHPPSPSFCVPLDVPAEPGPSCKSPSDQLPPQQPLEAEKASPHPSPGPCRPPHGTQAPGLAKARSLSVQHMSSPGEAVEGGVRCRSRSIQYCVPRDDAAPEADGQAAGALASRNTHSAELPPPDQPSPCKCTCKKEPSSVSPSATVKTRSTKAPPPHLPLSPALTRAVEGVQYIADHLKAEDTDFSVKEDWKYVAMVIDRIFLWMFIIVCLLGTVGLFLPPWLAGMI
T5 sequence (P17787 26-502): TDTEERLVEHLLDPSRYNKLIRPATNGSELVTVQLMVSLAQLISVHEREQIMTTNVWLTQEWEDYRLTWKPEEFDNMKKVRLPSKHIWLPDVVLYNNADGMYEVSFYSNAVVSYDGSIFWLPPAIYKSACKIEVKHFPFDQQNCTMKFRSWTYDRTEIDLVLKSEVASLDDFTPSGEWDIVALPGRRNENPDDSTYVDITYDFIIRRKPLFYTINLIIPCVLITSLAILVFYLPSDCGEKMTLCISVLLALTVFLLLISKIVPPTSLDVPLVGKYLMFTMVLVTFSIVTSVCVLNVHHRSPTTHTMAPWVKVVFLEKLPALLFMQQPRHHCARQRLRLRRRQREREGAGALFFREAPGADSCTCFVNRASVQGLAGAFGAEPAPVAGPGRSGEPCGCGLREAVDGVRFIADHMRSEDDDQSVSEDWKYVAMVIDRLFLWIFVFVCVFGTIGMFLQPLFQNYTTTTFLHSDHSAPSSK
T4 sequence (P08172 whole entry): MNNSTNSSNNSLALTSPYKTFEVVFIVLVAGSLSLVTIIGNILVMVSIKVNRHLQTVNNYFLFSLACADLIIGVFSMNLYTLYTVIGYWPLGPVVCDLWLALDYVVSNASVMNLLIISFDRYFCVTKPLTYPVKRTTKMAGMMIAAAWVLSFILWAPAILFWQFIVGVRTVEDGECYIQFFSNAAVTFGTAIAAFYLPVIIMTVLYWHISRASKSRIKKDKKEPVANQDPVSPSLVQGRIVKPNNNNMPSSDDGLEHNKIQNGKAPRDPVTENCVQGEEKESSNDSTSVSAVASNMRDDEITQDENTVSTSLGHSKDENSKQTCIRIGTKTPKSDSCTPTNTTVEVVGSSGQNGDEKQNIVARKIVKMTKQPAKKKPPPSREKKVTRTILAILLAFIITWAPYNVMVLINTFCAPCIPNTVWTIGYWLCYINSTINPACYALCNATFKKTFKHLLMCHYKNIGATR
T1 sequence (P20309 whole entry): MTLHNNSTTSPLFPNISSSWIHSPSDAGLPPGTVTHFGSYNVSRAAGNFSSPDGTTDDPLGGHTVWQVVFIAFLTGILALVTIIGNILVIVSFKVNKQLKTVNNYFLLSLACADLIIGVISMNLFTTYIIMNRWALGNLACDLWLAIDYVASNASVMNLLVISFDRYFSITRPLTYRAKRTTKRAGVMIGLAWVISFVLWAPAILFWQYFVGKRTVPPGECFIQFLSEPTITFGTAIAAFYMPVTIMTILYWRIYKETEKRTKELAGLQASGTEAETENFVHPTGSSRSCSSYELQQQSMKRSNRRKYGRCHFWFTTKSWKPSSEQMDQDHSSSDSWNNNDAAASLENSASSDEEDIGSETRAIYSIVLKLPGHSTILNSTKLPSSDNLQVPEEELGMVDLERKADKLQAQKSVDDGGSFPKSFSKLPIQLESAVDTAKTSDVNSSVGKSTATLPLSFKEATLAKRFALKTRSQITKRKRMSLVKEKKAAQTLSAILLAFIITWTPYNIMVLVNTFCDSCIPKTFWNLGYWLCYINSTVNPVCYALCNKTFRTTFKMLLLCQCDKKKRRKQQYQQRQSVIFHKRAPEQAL
T2 sequence (Q9H3N8 whole entry): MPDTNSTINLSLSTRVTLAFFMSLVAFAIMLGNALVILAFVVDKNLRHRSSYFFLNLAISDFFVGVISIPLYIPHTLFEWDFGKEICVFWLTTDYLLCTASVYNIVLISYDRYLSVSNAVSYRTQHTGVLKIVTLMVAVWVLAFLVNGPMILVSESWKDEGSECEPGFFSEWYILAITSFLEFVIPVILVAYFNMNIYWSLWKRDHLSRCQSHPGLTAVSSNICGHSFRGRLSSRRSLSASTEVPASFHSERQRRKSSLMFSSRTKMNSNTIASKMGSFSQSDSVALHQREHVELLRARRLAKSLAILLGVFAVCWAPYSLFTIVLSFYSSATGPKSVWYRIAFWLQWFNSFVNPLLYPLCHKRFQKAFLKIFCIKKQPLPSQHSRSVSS
T3 sequence (P36544 23-502): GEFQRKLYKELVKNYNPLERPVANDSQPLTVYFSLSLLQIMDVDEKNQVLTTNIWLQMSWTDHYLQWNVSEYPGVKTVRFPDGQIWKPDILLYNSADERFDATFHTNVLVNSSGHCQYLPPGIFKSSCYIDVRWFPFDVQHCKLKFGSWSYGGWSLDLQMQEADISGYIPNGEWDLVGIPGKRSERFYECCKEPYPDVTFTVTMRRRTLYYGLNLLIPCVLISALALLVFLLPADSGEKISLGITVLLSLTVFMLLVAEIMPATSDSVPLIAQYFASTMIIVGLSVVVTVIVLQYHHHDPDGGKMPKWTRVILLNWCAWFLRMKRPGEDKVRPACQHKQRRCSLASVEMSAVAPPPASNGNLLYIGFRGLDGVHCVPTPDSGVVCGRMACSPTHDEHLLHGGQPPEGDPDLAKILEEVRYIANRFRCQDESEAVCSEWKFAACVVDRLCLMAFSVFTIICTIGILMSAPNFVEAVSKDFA

Regarding `C[N+](C)(C)CCCCCNCC12CC3CC(CC(C3)C1)C2` [IEM-1460], the “Mean% inhibition (N = 2) of radioligand binding” value in series [1] is given as 15%; in series [2], under 1%; in series [3] it was under 1%; in series [5], under 1%; in series [6] it was under 1%. In series [4], the half-life at 1 μM was over 300 min. In series [7], this compound displayed a half-life of over 5 h. Besides, the IC50 in series [8] was about 3000 nM. In addition, the “apparent selectivity for CP- over CI-AMPARs” value in series [8] is listed as ~ 300 fold.
Take `NCCCCCNC1(c2ccccc2)CCCCC1` [IEM-1925]: the “Mean% inhibition (N = 2) of radioligand binding” value in series [1] was under 5%; in series [2], under 5%; in series [3], under 2%; in series [5], under 1%; in series [6], under 1%. For the same compound, the half-life at 1 μM in series [4] was over 300 min. In series [7], this compound had a half-life of over 5 h. Further, the IC50 in series [8] is about 1000 nM. In series [8], the “apparent selectivity for CP- over CI-AMPARs” value is given as ~ 300 fold.
